Laboratory results as given in ChEMBL document CHEMBL1134574, “Synthesis and characterization of non-steroidal ligands for the glucocorticoid receptor: selective quinoline derivatives with prednisolone-equivalent functional activity” (J Med Chem, 2001).

Legend:
[1] = target: T1, Glucocorticoid receptor (Homo sapiens, UniProt P04150); assay: Repression activity of GR ligand with interleukin-6 receptor in native cell assay using Dexamethasone was determined as maximal potency; assay type: functional
T1 sequence (P04150 whole entry): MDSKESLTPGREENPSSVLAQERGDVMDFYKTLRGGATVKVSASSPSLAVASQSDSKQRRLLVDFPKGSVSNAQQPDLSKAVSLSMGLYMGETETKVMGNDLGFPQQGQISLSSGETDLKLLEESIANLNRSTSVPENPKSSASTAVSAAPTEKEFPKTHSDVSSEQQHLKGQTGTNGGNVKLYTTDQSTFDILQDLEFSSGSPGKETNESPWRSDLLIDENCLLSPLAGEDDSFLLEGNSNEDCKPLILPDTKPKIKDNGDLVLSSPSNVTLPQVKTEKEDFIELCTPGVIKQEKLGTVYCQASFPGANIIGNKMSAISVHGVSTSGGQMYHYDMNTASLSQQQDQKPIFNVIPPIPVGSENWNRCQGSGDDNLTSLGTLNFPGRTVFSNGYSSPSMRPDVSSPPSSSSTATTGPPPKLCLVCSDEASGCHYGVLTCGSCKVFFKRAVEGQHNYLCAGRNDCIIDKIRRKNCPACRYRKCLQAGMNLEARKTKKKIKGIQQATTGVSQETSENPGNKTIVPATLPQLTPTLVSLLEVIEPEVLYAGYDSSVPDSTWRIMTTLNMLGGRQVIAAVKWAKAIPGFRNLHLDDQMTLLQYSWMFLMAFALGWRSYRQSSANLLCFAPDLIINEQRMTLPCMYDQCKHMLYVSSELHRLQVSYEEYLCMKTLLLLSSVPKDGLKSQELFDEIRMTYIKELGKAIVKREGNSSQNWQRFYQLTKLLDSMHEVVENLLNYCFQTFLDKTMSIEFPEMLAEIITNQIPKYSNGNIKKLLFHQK

[2] = target: T2, Mineralocorticoid receptor (Homo sapiens, UniProt P08235); assay: Binding affinity for mineralocorticoid receptor
T2 sequence (P08235 whole entry): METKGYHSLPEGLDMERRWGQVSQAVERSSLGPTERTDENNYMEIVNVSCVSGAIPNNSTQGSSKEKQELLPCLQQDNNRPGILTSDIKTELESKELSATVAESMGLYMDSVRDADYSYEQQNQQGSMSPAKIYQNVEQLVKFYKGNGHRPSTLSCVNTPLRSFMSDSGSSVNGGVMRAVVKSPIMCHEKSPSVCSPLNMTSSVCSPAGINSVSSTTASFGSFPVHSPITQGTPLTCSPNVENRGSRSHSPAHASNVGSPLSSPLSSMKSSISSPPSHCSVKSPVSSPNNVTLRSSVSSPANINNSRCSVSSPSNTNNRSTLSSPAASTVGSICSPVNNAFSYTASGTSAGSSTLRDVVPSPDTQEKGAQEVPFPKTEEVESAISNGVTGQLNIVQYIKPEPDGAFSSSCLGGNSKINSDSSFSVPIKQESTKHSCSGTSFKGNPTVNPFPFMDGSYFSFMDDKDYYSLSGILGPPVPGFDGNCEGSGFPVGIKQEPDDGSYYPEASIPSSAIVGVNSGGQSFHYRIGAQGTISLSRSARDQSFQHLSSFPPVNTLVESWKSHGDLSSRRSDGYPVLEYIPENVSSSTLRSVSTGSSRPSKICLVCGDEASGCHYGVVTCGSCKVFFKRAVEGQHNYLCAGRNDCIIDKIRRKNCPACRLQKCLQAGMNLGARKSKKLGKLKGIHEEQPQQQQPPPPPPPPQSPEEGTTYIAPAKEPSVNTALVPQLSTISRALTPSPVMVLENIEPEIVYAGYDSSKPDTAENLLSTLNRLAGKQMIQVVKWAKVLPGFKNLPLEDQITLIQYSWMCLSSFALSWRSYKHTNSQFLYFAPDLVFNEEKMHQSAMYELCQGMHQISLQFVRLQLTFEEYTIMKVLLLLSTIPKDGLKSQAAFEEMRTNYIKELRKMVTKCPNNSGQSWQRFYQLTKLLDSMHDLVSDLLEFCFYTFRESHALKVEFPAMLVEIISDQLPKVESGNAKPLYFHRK

[3] = target: T1, Glucocorticoid receptor; assay: Transcriptional repression activity in HEP G2 cells expressing glucocorticoid receptor compared to Dexamethasone; assay type: functional, cell-based, HepG2
[4] = target: T3, Progesterone receptor (Homo sapiens, UniProt P06401); assay: Binding affinity for progesterone receptor
T3 sequence (P06401 whole entry): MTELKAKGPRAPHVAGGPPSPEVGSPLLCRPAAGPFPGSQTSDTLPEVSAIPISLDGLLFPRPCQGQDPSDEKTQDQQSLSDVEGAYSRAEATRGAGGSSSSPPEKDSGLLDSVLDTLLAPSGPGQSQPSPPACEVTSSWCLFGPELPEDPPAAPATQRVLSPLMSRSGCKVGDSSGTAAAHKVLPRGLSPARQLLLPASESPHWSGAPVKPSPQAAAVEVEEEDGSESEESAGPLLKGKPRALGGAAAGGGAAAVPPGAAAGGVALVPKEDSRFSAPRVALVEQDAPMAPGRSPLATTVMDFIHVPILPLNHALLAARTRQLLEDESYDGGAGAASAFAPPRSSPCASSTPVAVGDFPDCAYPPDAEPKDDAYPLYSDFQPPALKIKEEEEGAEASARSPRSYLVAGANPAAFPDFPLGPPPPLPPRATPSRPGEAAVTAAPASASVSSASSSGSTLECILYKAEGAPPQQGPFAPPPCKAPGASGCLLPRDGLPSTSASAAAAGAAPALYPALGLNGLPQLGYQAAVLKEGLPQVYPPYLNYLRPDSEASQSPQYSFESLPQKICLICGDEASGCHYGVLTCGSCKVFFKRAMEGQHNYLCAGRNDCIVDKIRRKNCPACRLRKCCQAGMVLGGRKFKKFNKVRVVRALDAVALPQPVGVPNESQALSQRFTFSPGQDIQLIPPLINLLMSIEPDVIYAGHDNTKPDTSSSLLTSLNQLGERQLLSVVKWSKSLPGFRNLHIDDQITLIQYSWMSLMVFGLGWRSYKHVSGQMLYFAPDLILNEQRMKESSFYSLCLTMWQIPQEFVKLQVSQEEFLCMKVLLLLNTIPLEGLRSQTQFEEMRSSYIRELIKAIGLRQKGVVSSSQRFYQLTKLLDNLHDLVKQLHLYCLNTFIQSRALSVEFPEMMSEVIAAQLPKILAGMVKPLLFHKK

IC50 [1]: 16 nM
Ki [2]: 3840 nM
IC50 [3]: 4 nM
Ki [4]: > 5000 nM
Compound: COc1cccc2c1-c1ccc3c(c1C(c1cccc(OCSC)c1)O2)C(C)=CC(C)(C)N3 (centres undefined)
